Common to all, as to assay type: in vivo
The test system of assay [1] is Erysiphe graminis f. sp. tritici. The assay can be described thus: Test A: preventive control of wheat powdery mildew on wheat seedlings. The settings on record: wheat seedlings sprayed to run-off, inoculated next day, rated after 7 days; concentration not given. The source says:
(§1) General protocol for preparing test suspensions: Test compounds are first dissolved in acetone in an amount equal to 3% of the final volume and then suspended at the desired concentration (in ppm) in acetone and purified water (50/50 mix) containing 250 ppm of the surfactant Trem® 014 (polyhydric alcohol esters). The resulting test suspensions are then used in the following tests. Spraying a 200 ppm test suspension to the point of run-off on the test plants is the equivalent of a rate of 500 g/ha.
The test suspension was sprayed to the point of run-off on wheat seedlings. The following day the seedlings were inoculated with a spore dust of Erysiphe graminis f. sp. tritici, (the causal agent of wheat powdery mildew) and incubated in a growth chamber at 20° C. for 7 days, after which disease ratings were made.

For the next assay, the system named is Puccinia recondita. Briefly: Test B: preventive control of wheat leaf rust on wheat seedlings. The settings on record: wheat seedlings sprayed to run-off, inoculated next day; concentration not given.
Source text: as §1
The test suspension was sprayed to the point of run-off on wheat seedlings. The following day the seedlings were inoculated with a spore suspension of Puccinia recondita (the causal agent of wheat leaf rust) and incubated in a saturated atmosphere at 20° C. for 24 h, and then moved to a growth chamber at 20° C. for 6 days, after which disease ratings were made.

A further assay relates to Pyricularia oryzae. Conditions: rice seedlings sprayed to run-off, inoculated next day; concentration not given.
Assay [2] concerns Phytophthora infestans. Conditions: tomato seedlings sprayed to run-off, inoculated next day; concentration not given.
Assay [3] deals with Plasmopara viticola. The assay can be described thus: Test E: preventive control of grape downy mildew on grape seedlings. Conditions: grape seedlings sprayed to run-off, inoculated next day; concentration not given.
Source text: as §1
The test suspension was sprayed to the point of run-off on grape seedlings. The following day the seedlings were inoculated with a spore suspension of Plasmopara viticola (the causal agent of grape downy mildew) and incubated in a saturated atmosphere at 20° C. for 24 h, moved to a growth chamber at 20° C. for 6 days, and then incubated in a saturated atmosphere at 20° C. for 24 h, after which disease ratings were made.

Assay [4] concerns Phytophthora infestans. Conditions: curative; 100 ppm on potato seedlings.
Assay [5] concerns Plasmopara viticola. Briefly: Test G: curative control of grape downy mildew on grape seedlings. Conditions: grape seedlings, curative.
Source text: as §1
Grape seedlings are inoculated with a spore suspension of Plasmopara viticola (the casual agent of grape downy mildew) and incubated in a saturated atmosphere at 20° C. for 24 h. The next day, test suspension is sprayed to the point of run-off and the treated plants are moved to a growth chamber at 20° C. for 6 days, and then incubated in a saturated atmosphere at 20° C. for 24 h, after which disease ratings are made.

A further assay deals with grape downy mildew. Briefly: Curative utility, in addition to the Tests of Table A. The settings on record: especially for grape downy mildew.

Marks after values point to notes of the source that are not given here.

With “2,4-Dichloro-N-[1-[3-chloro-5-(trifluoromethyl)-2-pyridinyl]ethyl]-3-pyridinecarboxamide [Compound 21]”, the “Test A disease control rating (100 = 100% disease control, 0 = no control)” value in assay [1] came to 0%. In the assay on Puccinia recondita, the “Test B disease control rating (100 = 100% disease control, 0 = no control)” value worked out at 74%. In the assay with Pyricularia oryzae, the “Test C disease control rating (100 = 100% disease control, 0 = no control)” value came out at 0%. Moreover, in the assay on Phytophthora infestans [2], the “Test D disease control rating (100 = 100% disease control, 0 = no control)” value was 100%. In addition, the “Test E disease control rating (100 = 100% disease control, 0 = no control)” value in the assay with Plasmopara viticola [3] was 100%. For the same compound, the “Test F disease control rating (100 = 100% disease control, 0 = no control)” value with Phytophthora infestans [4] is 100# %. In the assay on Plasmopara viticola [5] (100 ppm (footnote *)), the “Test G disease control rating (100 = 100% disease control, 0 = no control)” value was 100* %. The curative utility entry in the assay on grape downy mildew is recorded as “significant curative utility”.

Consider “2,4-Dichloro-N-[[3-chloro-5-(trifluoromethyl)-2-pyridinyl]methyl]-3-pyridinecarboxamide [Compound 19]”, for which the “Test A disease control rating (100 = 100% disease control, 0 = no control)” value in assay [1] was 0%. The “Test B disease control rating (100 = 100% disease control, 0 = no control)” value with Puccinia recondita stood at 35%. In addition, the “Test C disease control rating (100 = 100% disease control, 0 = no control)” value in the assay with Pyricularia oryzae was determined as 0%. Besides, the “Test D disease control rating (100 = 100% disease control, 0 = no control)” value with Phytophthora infestans [2] came out at 100%. The “Test E disease control rating (100 = 100% disease control, 0 = no control)” value in the assay with Plasmopara viticola [3] came to 100%. In addition, the “Test F disease control rating (100 = 100% disease control, 0 = no control)” value in the assay on Phytophthora infestans [4] is 97# %. The “Test G disease control rating (100 = 100% disease control, 0 = no control)” value in the assay on Plasmopara viticola [5] (100 ppm (footnote *)) is on record as 37* %. Moreover, the curative utility entry with grape downy mildew was “significant curative utility”.

Regarding `CC(NC(=O)c1c(Cl)ccnc1Cl)c1ncc(C(F)(F)F)cc1Cl` (single isomer, unassigned; (+)) [Compound 22, (+)-2,4-Dichloro-N-[1-[3-chloro-5-(trifluoromethyl)-2-pyridinyl]ethyl]-3-pyridinecarboxamide], the “Test C disease control rating (100 = 100% disease control, 0 = no control)” value with Pyricularia oryzae is listed as 0%. Further, in the assay on Phytophthora infestans [2], the “Test D disease control rating (100 = 100% disease control, 0 = no control)” value was found to be 100%. In the assay with Plasmopara viticola [3], the “Test E disease control rating (100 = 100% disease control, 0 = no control)” value turned out to be 100%. For the same compound, in the assay with Phytophthora infestans [4], the “Test F disease control rating (100 = 100% disease control, 0 = no control)” value is 100# %. Further, the “Test G disease control rating (100 = 100% disease control, 0 = no control)” value with Plasmopara viticola [5] (20 ppm) is 100** %. In addition, the curative utility result in the assay on grape downy mildew is listed as “significant curative utility”.

Turning to `Cc1cnc(Cl)c(C(=O)NCc2ncc(C(F)(F)F)cc2Cl)c1Cl` [Compound 20], in assay [1], the “Test A disease control rating (100 = 100% disease control, 0 = no control)” value is 0%. The “Test B disease control rating (100 = 100% disease control, 0 = no control)” value with Puccinia recondita is on record as 54%. In the assay with Pyricularia oryzae, the “Test C disease control rating (100 = 100% disease control, 0 = no control)” value amounted to 0%. For the same compound, in the assay with Phytophthora infestans [2], the “Test D disease control rating (100 = 100% disease control, 0 = no control)” value is 100%. Moreover, the “Test E disease control rating (100 = 100% disease control, 0 = no control)” value with Plasmopara viticola [3] is reported as 100%. The “Test F disease control rating (100 = 100% disease control, 0 = no control)” value in the assay on Phytophthora infestans [4] was 24# %. The “Test G disease control rating (100 = 100% disease control, 0 = no control)” value in the assay with Plasmopara viticola [5] (100 ppm (footnote *)) is on record as 100* %. Further, the curative utility result with grape downy mildew is on record as “significant curative utility”.

The record behind these values is US20050009889A1 (priority 2002, published 2005).
